A value given as a limit tells only on which side of the number the result lay.

The target of this assay is SARS-CoV-2 3CL-protease (Severe acute respiratory syndrome coronavirus 2, UniProt P0DTD1). Description: SARS-CoV-2 3C-Like (3CL) Protease Fluorescence Assay (FRET). The assay is classed as biochemical. The conditions noted are these: SARS-CoV-2 3CL-protease 10 nM, 30 min preincubation at RT, substrate 40 μM.
For orientation: IC50 means the concentration that gives 50% inhibition. Higher therefore signals weaker potency. `CC(C)C[C@@H](C(=O)N1C[C@]2(C[C@H]1C#N)C(=O)Nc1ccccc12)N(C)C(=O)CC1CC1` [Example 364]: the IC50 is less than 100 nM.
Then `CC(C)(C)C[C@H](NC(=O)c1cc(Cl)c2ncccc2c1)C(=O)N1C[C@]2(C[C@H]1C#N)C(=O)Nc1ccccc12` [Example 138], with less than 100 nM; and `CC(C)C[C@@H](C(=O)N1C[C@]2(C[C@H]1C#N)C(=O)Nc1ccccc12)N(C)C(=O)c1nc2c(F)cc(F)cc2[nH]1` [Example 269], with less than 100 nM; and `CC(C)C[C@H](NC(=O)c1ccc(-c2ccccc2)[nH]1)C(=O)N1C[C@]2(C[C@H]1C#N)C(=O)Nc1ccccc12` [Example 151], with greater than 1000 nM.
With `N#C[C@@H]1C[C@@]2(CN1C(=O)[C@H](Cc1ccccc1F)NC(=O)c1cc3c(F)cc(F)cc3[nH]1)C(=O)Nc1ccc(Cl)cc12` [Example 451], the IC50 is less than 100 nM.
Then `CC(C)C[C@@H](C(=O)N1C[C@]2(C[C@H]1C#N)C(=O)Nc1ccccc12)N(C)C(=O)c1cnc2cnccc2c1` [Example 301], with less than 100 nM; and `Cc1cccc(CC(=O)N(C)[C@@H](CC(C)(C)F)C(=O)N2C[C@]3(C[C@H]2C#N)C(=O)Nc2ccc(Cl)cc23)n1` [Example 487], with less than 100 nM; and `C#CCOC[C@H](NC(=O)c1cc2c(OC)cccc2[nH]1)C(=O)N1C[C@]2(C[C@H]1C#N)C(=O)Nc1ccccc12` [Example 127], with less than 100 nM.
Then `Cc1cc(F)c(C(=O)N(C)[C@@H](CC(C)C)C(=O)N2C[C@]3(C[C@H]2C#N)C(=O)Nc2ccccc23)cc1-c1cnn(C2CC2)c1` [Example 342], with less than 100 nM; and `CC(C)C[C@@H](C(=O)N1C[C@]2(C[C@H]1C#N)C(=O)Nc1ccccc12)N(C)C(=O)c1cc2cccnc2cc1OC(F)F` [Example 253], with less than 100 nM.
Molecule `CC(C)C[C@@H](C(=O)N1C[C@]2(C[C@H]1C#N)C(=O)Nc1ccccc12)N(C)C(=O)c1ccncc1` [Example 194] displayed an IC50 of 100 to 1000 nM.
Then `CC(C)(C)C[C@H](NC(=O)c1cnn(CC(F)(F)F)c1)C(=O)N1C[C@]2(C[C@H]1C#N)C(=O)Nc1ccccc12` [Example 144], with less than 100 nM; and `CN(C(=O)Cc1cccc(C(F)(F)F)n1)[C@@H](CC(C)(C)F)C(=O)N1C[C@]2(C[C@H]1C#N)C(=O)Nc1ccc(Cl)cc12` [Example 485], with 100 to 1000 nM.
For `CC(C)C[C@@H](C(=O)N1C[C@]2(C[C@H]1C#N)C(=O)Nc1ccccc12)N(C)C(=O)c1c(Cl)ccc(Cl)c1F` [Example 169], the IC50 was less than 100 nM.
In turn, `CC(C)C[C@@H](C(=O)N1C[C@]2(C[C@H]1C#N)C(=O)Nc1ccccc12)N(C)C(=O)c1cncc2ccccc12` [Example 295] displayed an IC50 of less than 100 nM.
The figure for `CN(C(=O)[C@H](O)Cc1ccc(F)cc1)[C@@H](CC1CC1)C(=O)N1C[C@]2(C[C@H]1C#N)C(=O)Nc1ccccc12` [Example 423] is less than 100 nM; for `CC(C)C[C@@H](C(=O)N1C[C@]2(C[C@H]1C#N)C(=O)Nc1ccccc12)N(C)C(=O)c1cc2ccc(=O)[nH]c2cc1OC1CC1` [Example 254] it is less than 100 nM; for `CC(C)C[C@@H](C(=O)N1C[C@]2(C[C@H]1C#N)C(=O)Nc1ccccc12)N(C)C(=O)[C@@H](c1cn(C)nn1)C(C)C` [Example 350] it is less than 100 nM.
The figure for `CN(C(=O)OCc1ccccc1)[C@@H](Cc1ccc(OCc2ccccc2)cc1)C(=O)N1C[C@]2(C[C@H]1C#N)C(=O)Nc1ccccc12` [Example 387] is greater than 1000 nM; for `CN(C(=O)CCN1CCOCC1)[C@@H](CC(C)(C)F)C(=O)N1C[C@]2(C[C@H]1C#N)C(=O)Nc1ccccc12` [Example 537] it is less than 100 nM; for `CN(C(=O)c1cc2c(F)cc(F)c(F)c2[nH]1)[C@@H](CC(C)(C)F)C(=O)N1C[C@]2(C[C@H]1C#N)C(=O)Nc1ncccc12` [Example 551] it is less than 100 nM.
The figure for `CC(C)C[C@@H](C(=O)N1C[C@]2(C[C@H]1C#N)C(=O)Nc1ccccc12)N(C)C(=O)c1cc(OC2CC2)c2nc(C3CC3)sc2c1` [Example 317] is less than 100 nM.
As for `CC(C)C[C@@H](C(=O)N1C[C@]2(C[C@H]1C#N)C(=O)Nc1ncccc12)N(C)C(=O)c1cc2c(F)cc(F)c(F)c2[nH]1` [Example 550], the IC50 was less than 100 nM.
For `CC(C)C[C@@H](C(=O)N1C[C@]2(C[C@H]1C#N)C(=O)Nc1ccccc12)N(C)C(=O)c1cccc(-c2ccc(C(F)(F)F)cc2)c1` [Example 263], the IC50 lay in the range of 100 to 1000 nM.
The figure for `CCCOC[C@@H](C(=O)N1C[C@]2(C[C@H]1C#N)C(=O)Nc1ccccc12)N(C)C(=O)c1cc2c(F)cc(F)cc2[nH]1` [Example 413, N—((S)-1-((3R,5′S)-5′-cyano-2-oxospiro[indoline-3,3′-pyrrolidin]-1′-yl)-1-oxo-3-propoxypropan-2-yl)-4,6-difluoro-N-methyl-1H-indole-2-carboxamide] is less than 100 nM; for `CC(C)C[C@@H](C(=O)N1C[C@]2(C[C@H]1C#N)C(=O)Nc1ccccc12)N(C)C(=O)c1cccc2ncccc12` [Example 214] it is less than 100 nM; for `CN(C(=O)c1cc2cccnc2[nH]1)[C@@H](CC(C)(C)F)C(=O)N1C[C@]2(C[C@H]1C#N)C(=O)Nc1ccc(Cl)cc12` [Example 470] it is less than 100 nM.
Regarding `CC(C)C[C@@H](C(=O)N1C[C@]2(C[C@H]1C#N)C(=O)Nc1ccccc12)N(C)C(=O)c1ccc(F)c(F)c1` [Example 178], the IC50 is less than 100 nM.
As to `CN(C(=O)c1cn(C(C)(C)C)nn1)[C@@H](CC1CC1)C(=O)N1C[C@]2(C[C@H]1C#N)C(=O)Nc1ccccc12` [Example 402], the IC50 was less than 100 nM.
Then `CC(C)C[C@@H](C(=O)N1C[C@]2(C[C@H]1C#N)C(=O)Nc1ccccc12)N(C)C(=O)c1cccc(-c2cccc(C#N)c2)c1` [Example 279], with 100 to 1000 nM.
The figure for `CC(C)(C)C[C@H](NC(=O)Nc1ccccc1)C(=O)N1C[C@]2(C[C@H]1C#N)C(=O)Nc1ccccc12` [Example 435] is 100 to 1000 nM; for `CC(C)C[C@@H](C(=O)N1C[C@]2(C[C@H]1C#N)C(=O)Nc1ccccc12)N(C)C(=O)c1cn(C)cn1` [Example 201] it is 100 to 1000 nM; for `CC(C)C[C@@H](C(=O)N1C[C@]2(C[C@H]1C#N)C(=O)Nc1ccccc12)N(C)C(=O)c1cc(OC2CC2)n2nc(C3CC3)cc2c1` [Example 315] it is less than 100 nM.
Then `CC(C)C[C@@H](C(=O)N1C[C@]2(C[C@H]1C#N)C(=O)Nc1ccccc12)N(C)C(=O)c1ccc2cccnc2c1O` [Example 285], with 100 to 1000 nM.
In the case of `CC(C)C[C@@H](C(=O)N1C[C@]2(C[C@H]1C#N)C(=O)Nc1ccccc12)N(C)C(=O)c1cc2cccc(F)c2[nH]1` [Example 325], the IC50 is less than 100 nM.
The figure for `Cc1ccc2cc(C(=O)N(C)[C@@H](CC(C)C)C(=O)N3C[C@]4(C[C@H]3C#N)C(=O)Nc3ccccc34)ccc2n1` [Example 234] is less than 100 nM.
The figure for `CC(C)C[C@@H](C(=O)N1C[C@]2(C[C@H]1C#N)C(=O)Nc1ccccc12)N(C)C(=O)c1cc(F)c2nc(C(F)F)cn2c1` [Example 341] is 100 to 1000 nM; for `CC(C)C[C@@H](C(=O)N1C[C@]2(C[C@H]1C#N)C(=O)Nc1ccccc12)N(C)C(=O)c1cc2cc(C(F)(F)F)cnc2[nH]1` [Example 488] it is less than 100 nM.
The figure for `CN(C(=O)c1cnn(C2CCCCC2)c1)[C@@H](CC1CC1)C(=O)N1C[C@]2(C[C@H]1C#N)C(=O)Nc1ccccc12` [Example 411] is less than 100 nM; for `CN(C(=O)CCN1CCC1)[C@@H](CC(C)(C)F)C(=O)N1C[C@]2(C[C@H]1C#N)C(=O)Nc1ccccc12` [Example 540] it is less than 100 nM; for `CC(C)C[C@@H](C(=O)N1C[C@]2(C[C@H]1C#N)C(=O)Nc1ccccc12)N(C)C(=O)c1cn(-c2ccc(Cl)cc2)nn1` [Example 284] it is less than 100 nM.
`[2H]C([2H])([2H])N(C(=O)c1cn(C2CCC2)nn1)[C@@H](CCCC)C(=O)N1C[C@]2(C[C@H]1C#N)C(=O)Nc1ccccc12` [Example 392] showed an IC50 of less than 100 nM.
`CC(C)(C)C[C@H](NC(=O)c1cnn(C(C)(C)C)c1)C(=O)N1C[C@]2(C[C@H]1C#N)C(=O)Nc1ccccc12` [Example 133] had an IC50 of less than 100 nM.
Then `CC(C)C[C@H](NC(=O)c1cc2c(F)cccc2[nH]1)C(=O)N1C[C@]2(C[C@H]1C#N)C(=O)Nc1cc(F)ccc12` [Example 530], with less than 100 nM; and `N#C[C@@H]1C[C@@]2(CN1C(=O)[C@H](CC1CC1)NC(=O)OCc1c(F)cccc1F)C(=O)Nc1ccc(Cl)cc12` [Example 492, 2,6-difluorobenzyl ((S)-1-((3R,5′S)-5-chloro-5′-cyano-2-oxospiro[indoline-3,3′-pyrrolidin]-1′-yl)-3-cyclopropyl-1-oxopropan-2-yl)carbamate], with less than 100 nM; and `CC(C)C[C@@H](C(=O)N1C[C@]2(C[C@H]1C=O)C(=O)Nc1ccccc12)N(C)C(=O)c1cc2c(F)cc(F)c(F)c2[nH]1` [Example 150], with less than 100 nM.
`[2H]C([2H])([2H])N(C(=O)c1nnn2ccccc12)[C@@H](CCCC)C(=O)N1C[C@]2(C[C@H]1C#N)C(=O)Nc1ccccc12` [Example 397] displayed an IC50 of less than 100 nM.
The figure for `CC(C)C[C@@H](C(=O)N1C[C@]2(C[C@H]1C#N)C(=O)Nc1ccccc12)N(C(=O)C(F)(F)F)C(C)C` [Example 432] is greater than 1000 nM; for `[2H]C([2H])([2H])N(C(=O)c1cn(C(C)(C)C)nn1)[C@@H](CCCC)C(=O)N1C[C@]2(C[C@H]1C#N)C(=O)Nc1ccccc12` [Example 393] it is less than 100 nM.
Then `CN(C(=O)c1cn(C(C)(C)C)nn1)[C@@H](Cc1ccccc1)C(=O)N1C[C@]2(C[C@H]1C#N)C(=O)Nc1ccccc12` [Example 363], with less than 100 nM; and `CC(C)C[C@@H](C(=O)N1C[C@]2(C[C@H]1C#N)C(=O)Nc1ccccc12)N(C)C(=O)C[C@@H](Cc1cc(F)c(F)cc1F)NC(=O)OC(C)(C)C` [Example 289], with less than 100 nM; and `CC(C)C[C@@H](C(=O)N1C[C@]2(C[C@H]1C#N)C(=O)Nc1ccccc12)N(C)C(=O)c1cc2sccc2[nH]1` [Example 209], with less than 100 nM.

Values taken from US12540141B2, “Spiropyrrolidine derived antiviral agents” (priority 2020, dated 2026).
